Measured values from patent US9662320B2, “Antagonists of the cannabinoid receptor CB1 for use in the treatment of diseases associated with neuronal dendritic abnormalities” (Universitat Pompeu Fabra, priority 2013, dated 2017).

Tested on: Fmr1^−/y mice
Test: Dendritic spine density and morphology analysis in Fmr1−/y mice treated with rimonabant
Assay type: in vivo
Conditions: 1 mg/kg, i.p., 7 d
Procedure: Fmr1 knockout (KO) mice in FVB background (Fmr1 KO, FVB.129P2-Pde6b^+ Tyr^c-ch Fmr1^tm1Cgr/J) and wild-type mice (WT, FVB.129P2-Pde6b^+ Tyr^c-ch/AntJ) were purchased from The Jackson Laboratory and crossed to obtain Fmr1^−/y and WT littermates. All experimental animals were bred in-house at the Barcelona Biomedical Research Park (PRBB) Animal Facility. Fmr1^−/y and WT mice were used at 12 to 16 weeks of age. Mice were housed four per cage in a temperature (21±1° C.) and humidity (55±10%) controlled environment. Food and water were available ad libitum. All the experiments were performed during the light phase of a 12 h light/dark cycle (lights on at 8 am and off at 8 pm). Animals were handled for one week before starting the experiments. All animal procedures followed the standard ethical guidelines (European Communities Directive […]) and were approved by the local ethical committee (Comitè Èlic d'Experimentació Animal-Parc de Recerca Biomèdica de Barcelona, CEEA-PRBB). The PRBB has also the Animal Welfare Assurance (#A5388-01, IACUC Approval Date Jun. 8, 2009) granted by the Office of Laboratory Animal Welfare (OLAW) of the National Institutes of Health (USA). All behavioral tests were performed by researchers blind to the different experimental groups.
Rimonabant was obtained from Sanofi-Aventis (Sanofi-Aventis Recherche). Rimonabant was injected intraperitoneally (i.p.) in a volume of 10 ml per kg.
Dendritic spine analysis was performed as previously described (Lee K W. et al., Proc Natl Acad Sci USA. 2006; 103(9): 3399-404) in mice that received a chronic administration of rimonabant (1 mg kg^−1, 7 d) or its vehicle. Brains were extracted after perfusion (4% PFA in PB) 3 h after the last administration of rimonabant or vehicle solution on the seventh day of treatment. […]
Results are reported as mean±s.e.m. The experiments were evaluated by one-way analysis of variance (ANOVA) followed by the Dunnett's post-hoc test when required. […]

[1] = compared to vehicle-treated Fmr1^−/y mice

For Cc1c(C(=O)NN2CCCCC2)nn(-c2ccc(Cl)cc2Cl)c1-c1ccc(Cl)cc1 [rimonabant, 5-(4-Chlorophenyl)-1-(2,4-dichloro-phenyl)-4-methyl-N-(piperidin-1-yl)-1H-pyrazole-3-carboxamide], the “dendritic spine density of CA1 pyramidal neurons” value (CA1 field of the hippocampus) was “normalized”, the “mushroom/wide (mature) spines” value [1] was “increase” and the “thin/stubby (immature) spines” value [1] was “decrease”.
